Measured values: paper PMC6539144, “Discovery of Novel Potential Reversible Peptidyl Arginine Deiminase Inhibitor” (International Journal of Molecular Sciences, 2019)
Where two headings read alike, the source gives them in different places.

Key:
human neutrophils [1] = test: NET assay: extracellular DNA release (PicoGreen) from PMA-stimulated neutrophils; assay type: cell-based; conditions: 30 µM
Experimental: Granulocyte-enriched fractions were harvested using a lymphocyte separation medium density gradient (PAN Biotech, Aidenbach, Germany). Neutrophils and erythrocytes were separated after 30 min of incubation with 1% polyvinyl alcohol (POCH, Gliwice, Poland). Neutrophils were collected from the upper layer and after centrifugation (280× g, 10 min), the residual erythrocytes were removed by lysis in water. Cells were then resuspended in serum-free DMEM without phenol red (Gibco, Waltham, MA, USA). To measure the extracellular DNA release, neutrophils were seeded at 2 × 10^6/well in 0.01 mg/mL poly-L-lysine (Sigma-Aldrich) coated 24-well plates and centrifuged (200× g, 5 min). Neutrophils were treated for 1h with DMSO alone, or with either 30 μM or 100 μM of compound 4 or Cl-amidine. Cells were then stimulated with 25 nM PMA (phorbol 12-myristate 13-acetate) or left unstimulated as controls for 3 h at 37 °C, 5% CO2. Following stimulation, the cell medium was collected and the extracellular DNA was quantified using the Quant-iT^TM PicoGreen® dsDNA Reagent (QPG; Invitrogen, Carlsbad, CA, USA). The 1:200 dilution of QPG in TE buffer (10 mM Tris, 1 mM EDTA, pH 7.5) and 90 μL of TE buffer was added to 10 μL of the supernatant containing the extracellular DNA and fluorescence was measured with an excitation wavelength 480 nm and emission wavelength 520 nm.

[2] = system: collagen-induced arthritis; conditions: cited from earlier work
colitis = system: colitis; parameters: method as in PMID 21415415; conditions: cited from earlier work
GST-PAD4 [3] = target: T1, GST-PAD4 (Homo sapiens, UniProt Q9UM07); test: GST-PAD4 inhibitory activity in the presence of serum and synovial fluid; assay type: biochemical; conditions: for Inhibitory potential on GST-PAD4 in the presence of serum / Inhibitory activity on GST-PAD4 in the presence of RA synovial fluid: 50 µM compound (Cl-amidine 50 and 200 µM); for Inhibitory potential on GST-PAD4 in the presence of serum: serum diluted 1:3, compared to in vitro conditions; for Inhibitory activity on GST-PAD4 in the presence of RA synovial fluid: synovial fluid diluted 1:3, 1 mM Dansyl-Gly-Arg
T1 construct: made in house
T1 sequence (Q9UM07 whole entry): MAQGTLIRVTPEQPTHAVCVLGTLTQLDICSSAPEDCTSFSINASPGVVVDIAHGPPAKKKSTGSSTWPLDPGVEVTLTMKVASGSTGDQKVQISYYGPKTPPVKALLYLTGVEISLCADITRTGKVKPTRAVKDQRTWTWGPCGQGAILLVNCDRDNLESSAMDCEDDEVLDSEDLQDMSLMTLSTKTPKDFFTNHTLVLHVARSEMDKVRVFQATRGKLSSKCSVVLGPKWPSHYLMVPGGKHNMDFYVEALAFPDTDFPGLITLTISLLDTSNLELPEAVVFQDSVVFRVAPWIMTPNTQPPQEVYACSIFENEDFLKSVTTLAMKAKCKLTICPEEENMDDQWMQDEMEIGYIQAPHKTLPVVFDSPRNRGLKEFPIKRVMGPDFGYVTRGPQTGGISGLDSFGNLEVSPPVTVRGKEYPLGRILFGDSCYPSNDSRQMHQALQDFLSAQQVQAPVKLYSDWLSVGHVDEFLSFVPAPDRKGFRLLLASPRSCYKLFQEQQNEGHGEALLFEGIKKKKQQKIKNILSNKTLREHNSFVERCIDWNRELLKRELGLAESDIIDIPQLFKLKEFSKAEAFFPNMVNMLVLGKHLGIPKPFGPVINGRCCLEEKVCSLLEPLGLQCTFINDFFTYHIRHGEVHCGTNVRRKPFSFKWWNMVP
Experimental: A total of 50 μM of compounds 1 to 6 were pre-incubated with 1 mU of GST-PAD4 for 30 min at 37 °C with serum from healthy blood donors, serum or synovial fluid from patients with RA, serially diluted from 1:1.5 to 1:30 in the assay buffer (100 mM Tris pH 7.5, 10 mM CaCl2). The reaction was then initiated by the addition of 1 mM Dansyl-Gly-Arg and stopped after 1h as described above. The assay included a negative and positive control: a DMSO (no compound) control and a known irreversible compound (Cl-amidine) at 50 and 200 μM. Samples were separated by HPLC.

GST-PAD4 [4] = target: T1, GST-PAD4; test: Histone H3 citrullination assay (purified calf thymus histone H3, western blot); assay type: biochemical; conditions: 50 µM, purified calf thymus histone H3, 0.5 mM DTT
Experimental: A total of 50 μM of compounds 1 to 6 were pre-incubated with 1 mU of GST-PAD4 for 30 min at 37 °C in the assay buffer (100 mM Tris pH 7.5, 10 mM CaCl2, 0.5 mM DTT). After that, 5 μg of purified calf thymus histone H3 was added to the reaction mixture and incubated further for 60 min at 37 °C. Three controls were performed in the assay: a DMSO (no compound) control and a known irreversible compound (Cl-amidine) at 50 and 200 μM. The citrullination was assessed by western blot using antibodies specific to citrullinated histone H3.
The protein concentration in each sample was measured (A280nm) and normalized post-extraction. Next, histone proteins were separated in precast Novex^TM 16% Tris-Glycine 1 mm minigels (Invitrogen, Carlsbad, CA, USA). After electrophoresis, proteins were transferred into nitrocellulose membranes (0.2 μm) at 4 °C (transfer buffer: 10 mM CAPS, 20% methanol, pH 11). Membranes were blocked for 1 h at room temperature with 5% milk in TBST (1× Tris Buffered Saline, pH 8.0, with 0.1% Tween 20) and then incubated overnight at 4 °C with rabbit polyclonal anti-H3Cit antibody (Abcam, ab5103, Cambridge, UK) at a 1:1,000 dilution in the blocking solution. […] The signal was recorded with ChemiDoc image analyzer (Bio-Rad Laboratories, Hercules, CA, USA).

human neutrophils [5] = test: NETs imaging assay (DNA and histone H2A immunostaining); assay type: cell-based; conditions: 100 µM, PMA stimulation
Experimental: For the NETs imaging assays, neutrophils were allowed to adhere to poly-L-lysine coated coverslips (5 × 10^5 cells/coverslip) for 30 min at 37 °C, 5% CO2. Neutrophils were then treated for 1 h with DMSO alone, or 100 μM of compound 4 or Cl-amidine. Neutrophils were then stimulated with 25 nM PMA or left unstimulated as controls for 3 h at 37 °C, 5% CO2. Neutrophils were fixed with 3.7% formaldehyde for 10 min, washed three times with PBS and blocked (5% FBS, 1% BSA, 0.05% Tween, 2 mM EDTA in PBS) for 1 h. Cells were washed and treated with 0.1% saponin (Sigma-Aldrich) in PBS for 30 min. Cells were stained first with rabbit polyclonal anti-histone H2A antibody (Abcam), and then with allophycocyanin (APC) F(ab’)2 goat anti-rabbit antibody (Jackson ImmunoResearch Lab Inc., Ely, UK) in the presence of 3% BSA in 0.1% saponin. Cells were counterstained with 1 µg/mL Hoechst 33258 dye (Invitrogen). Images were captured with a fluorescence microscope (Nikon Eclips Ti, Nikon, Konan, Tokyo).

PAD4 = conditions: cited from earlier work
GST-PAD4 [6] = target: T1, GST-PAD4; test: GST-PAD4 inhibition assay (Dansyl-Gly-Arg citrullination, HPLC); assay type: biochemical; conditions: for Inhibition of GST-PAD4, initial screening: 0–250 µM inhibitor, 0.25 mM Dansyl-Gly-Arg; for Ki / IC50: GST-PAD4 preincubated 30 min with compound, 0.5 mM DTT, 10 mM CaCl2, 0.25 mM Dansyl-Gly-Arg, mean ± S.D., n = 3; for Ki: assuming competitive reversible mechanism; for IC50: linear regression
Experimental: 1 mU of GST-PAD4 was used in the experiments. To optimize the concentration of the reducing agent, experiments were done using different concentrations of DTT in the assay buffer ranging from 0 to 10 mM and the final concentration for the presented results was 0.5 mM DTT. Following pre-incubation of enzyme in the assay buffer, the reaction was initiated by the addition of 0.25 mM Dansyl-Gly-Arg. The reaction was stopped after 1h (as described above), the sample was separated by HPLC and the relative activity of PAD in each sample was determined by measuring the peak area of the citrullinated Dansyl-Gly-Arg.
The equilibrium inhibition constant (Ki) and IC50 were calculated from the fit of observed PAD activity against the respective compound concentration. Data was analyzed by the built-in Morrisson equation for tight-binding inhibition and represent the mean ± SD from at least three different determinations. IC50 values were determined by the linear regression to the initial fragment of the inhibition curve and are representative of inhibitor concentration required for the 50% reduction in the product release during the reaction.

human neutrophils [7] = test: Histone H3 citrullination in neutrophils stimulated with calcium ionophore; assay type: cell-based; conditions: 50 µM, 4 μM calcium ionophore stimulation
Experimental: Neutrophils were isolated from human peripheral blood collected in acid citrate dextrose (ACD-A) by first spinning blood on Lymphoprep^TM (Axis Shield, Oslo, Norway), followed by dextran sedimentation using 3% dextran density gradient and hypotonic lysis of erythrocytes. Neutrophil purity was assessed to be >90% by flow cytometry. Cells were resuspended at 2 × 10^6 cells/mL in RPMI-1640 with HEPES (Thermo Fisher Scientific, Waltham, MA, USA) supplemented with 2 mM CaCl2 and pre-treated for 30 min with DMSO alone, 50 μM of compounds 1 to 6 or with either 50 or 200 μM of Cl-amidine. Cells were then stimulated with 4 μM calcium ionophore A23187 (Sigma-Aldrich, St. Louis, MO, USA) or left unstimulated as controls for 15 min at 37 °C, 5% CO2. Following stimulation, acid extraction of histones was performed according to Shechter et al.. […] The presence of citrullination in cellular histones was analyzed by Western blot.
The protein concentration in each sample was measured (A280nm) and normalized post-extraction. […] The signal was recorded with ChemiDoc image analyzer (Bio-Rad Laboratories, Hercules, CA, USA).

HisTag-PPAD = target: T2, HisTag-PPAD (Porphyromonas gingivalis, UniProt Q9RQJ2); test: HisTag-PPAD inhibition assay (Dansyl-Gly-Arg citrullination, HPLC); assay type: biochemical; conditions: 0–250 µM inhibitor, 0.25 mM Dansyl-Gly-Arg
T2 construct: made in house
T2 sequence (Q9RQJ2 44-556): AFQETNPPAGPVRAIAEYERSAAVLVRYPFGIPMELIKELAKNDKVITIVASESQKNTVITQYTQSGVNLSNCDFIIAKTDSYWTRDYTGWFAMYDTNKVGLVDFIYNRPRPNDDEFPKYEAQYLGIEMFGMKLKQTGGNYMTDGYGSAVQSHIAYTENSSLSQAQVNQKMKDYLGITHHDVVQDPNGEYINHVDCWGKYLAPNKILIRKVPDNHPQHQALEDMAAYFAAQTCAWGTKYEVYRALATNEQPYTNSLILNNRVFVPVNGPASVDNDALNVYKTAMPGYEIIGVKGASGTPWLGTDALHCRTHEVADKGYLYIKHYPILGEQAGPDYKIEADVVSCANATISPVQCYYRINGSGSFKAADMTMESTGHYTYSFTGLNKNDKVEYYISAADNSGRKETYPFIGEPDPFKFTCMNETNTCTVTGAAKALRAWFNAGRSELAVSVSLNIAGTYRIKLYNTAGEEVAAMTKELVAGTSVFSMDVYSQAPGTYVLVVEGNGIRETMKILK

[8] = 50 µM compound, serum diluted 1:3, 1 mM Dansyl-Gly-Arg
[9] = PAD4-specific reversible inhibitors, read-out: IC50

## N=C(CCl)NCCC[C@H](NC(=O)c1ccccc1)C(N)=O [Cl-amidine, N-α-Benzoyl-N5-(2-Chloro-1-Iminoethyl)-l-Ornithine Amide, reference compound]
Human neutrophils [1]
  Inhibition of DNA release (NETs) from PMA-stimulated neutrophils: inhibited this effect
[2]
  Severity of murine collagen-induced arthritis: decrease in the severity
colitis
  Clinical signs and symptoms of colitis: reduce clinical signs and symptoms of colitis
GST-PAD4 [3]
  Inhibitory potential on GST-PAD4 in the presence of serum: partially losing its inhibitory potential
  Inhibitory activity on GST-PAD4 in the presence of RA synovial fluid: ineffective
GST-PAD4 [4]
  Inhibition of GST-PAD4-mediated citrullination of histone H3 (western blot): not effective
Human neutrophils [5]
  NET formation visualized by DNA and histone H2A immunostaining: blocked the NET formation
PAD4; read-out: IC50
  IC50: […]

## Cc1ccc(/C=c2/sc3ncnn3c2=O)o1 [Compound 1]
GST-PAD4 [6]
  Inhibition of GST-PAD4, initial screening: no inhibition
GST-PAD4 [3]
  Inhibitory activity on GST-PAD4 in the presence of RA synovial fluid: did not show any detectable inhibitory activity
GST-PAD4 [3]; [8]
  Inhibitory activity on GST-PAD4 in the presence of serum from RA patients: did not show any detectable inhibitory activity
  Inhibitory activity on GST-PAD4 in the presence of serum from healthy donors: did not show any detectable inhibitory activity

## Cc1ccc(/C=c2/sc3ncnn3c2=O)o1 [Compound 2]
Human neutrophils [7]
  Inhibition of histone H3 citrullination in neutrophils (western blot): ineffective
GST-PAD4 [6]
  Inhibition of GST-PAD4, initial screening: partially inhibited
  Ki: 940 ± 310 nM
  IC50: 1400 ± 260 nM
GST-PAD4 [3]
  Inhibitory potential on GST-PAD4 in the presence of serum: retained their inhibitory potential
HisTag-PPAD
  Inhibition of HisTag-PPAD: no effect

## FC(F)(F)c1cc(SCc2ccc(Cl)c(Cl)c2)nc2cc3c(cc12)OCO3 [Compound 4]
Human neutrophils [1]
  Inhibition of DNA release (NETs) from PMA-stimulated neutrophils: limited ability to block DNA release
Human neutrophils [7]
  Inhibition of histone H3 citrullination in neutrophils (western blot): visibly limited
GST-PAD4 [6]
  Inhibition of GST-PAD4, initial screening: partially inhibited
  Ki: 1000 ± 160 nM
  IC50: 1880 ± 260 nM
GST-PAD4 [3]
  Inhibitory potential on GST-PAD4 in the presence of serum: retained their inhibitory potential
GST-PAD4 [3]; [8]
  Inhibitory activity on GST-PAD4 in the presence of serum from RA patients: did not diminish further
HisTag-PPAD
  Inhibition of HisTag-PPAD: no effect
GST-PAD4 [4]
  Inhibition of GST-PAD4-mediated citrullination of histone H3 (western blot): significantly hampered
Human neutrophils [5]
  NET formation visualized by DNA and histone H2A immunostaining: blocked the NET formation

## CCn1c(-c2nc3cc(C(=O)N4CCCC(N)C4)cc(OC)c3n2C)cc2cccnc21 (stereo not drawn) [GSK199]
PAD4; [9]
  IC50: 200 nM

## CN(C)c1ccc(O)c2c1C[C@H]1C[C@H]3[C@H](N(C)C)C(O)=C(C(N)=O)C(=O)[C@@]3(O)C(O)=C1C2=O [minocycline]
PAD4; reversible inhibitors
  IC50: millimolar

## [H]/N=C(/N)N[C@H]1[C@H](O)[C@@H](O)[C@H](O[C@@H]2O[C@@H](C)[C@](O)(C=O)[C@H]2O[C@@H]2O[C@@H](CO)[C@H](O)[C@@H](O)[C@@H]2NC)[C@@H](N/C(N)=N\[H])[C@@H]1O [streptomycin]
PAD4; reversible inhibitors
  IC50: millimolar

## CC(=O)O[C@H]1C(=O)[C@@]2(C)[C@H]([C@H](OC(=O)c3ccccc3)[C@]3(O)C[C@H](OC(=O)[C@H](O)[C@@H](NC(=O)c4ccccc4)c4ccccc4)C(C)=C1C3(C)C)[C@]1(OC(C)=O)CO[C@@H]1C[C@@H]2O [taxol]
PAD4; reversible inhibitors
  IC50: millimolar
